Experimental data from US6706740B2, “Fungicidal heterocyclic aromatic amides and their compositions, methods of use and preparation” (Dow AgroSciences LLC, priority 1999, dated 2004).
Like-named read-outs stand apart in the source and are kept apart here.

What was measured:
[1] = tested on: Magnaporthe grisea (Pyricularia oryzae—PYRIOR); test: microbe, parasite or virus in culture; format: cell-based; conditions: Pyricularia oryzae, read-out: PYRIOR in vitro Growth Inhibition
[2] = tested on: Rhizoctonia solani (RHIZSO); test: microbe, parasite or virus in culture; format: cell-based; conditions: Rhizoctonia solani, read-out: RHIZSO in vitro Growth Inhibition
[3] = tested on: Mycosphaerella graminicola (Septoria tritici—SEPTTR); test: In vitro fungal growth inhibition, Mycosphaerella graminicola (SEPTTR); format: cell-based; conditions: Zymoseptoria tritici, read-out: SEPTTR in vitro Growth Inhibition
[4] = tested on: Stagonospora nodorum (Leptosphaeria nodorum—LEPTNO); test: In vitro fungal growth inhibition, Stagonospora nodorum (LEPTNO); format: cell-based; conditions: Leptosphaeria, read-out: LEPTNO in vitro Growth Inhibition
[5] = tested on: Ustilago maydis (USTIMA); test: microbe, parasite or virus in culture; format: cell-based; conditions: Mycosarcoma maydis, read-out: USTIMA in vitro Growth Inhibition
[6] = tested on: Phytophthora infestans (PHYTIN); test: microbe, parasite or virus in culture; format: cell-based; conditions: Phytophthora infestans, read-out: PHYTIN in vitro Growth Inhibition
[7] = tested on: Phytophthora infestans—PHYTIN; test: whole plant or invertebrate; format: in vivo; conditions: Phytophthora, in Solanum lycopersicum, 24 h, read-out: PHYTIN in vivo 1 Day Protectant
[8] = tested on: Puccinia recondita—PUCCRT; test: Brown Rust of Wheat, in vivo whole plant, 24 Hour Protectant; conditions: for pest or weed control at 100 ppm: Puccinia, control of fungal infection vs untreated plants, read-out: PUCCRT in vivo 1 Day Protectant; for PUCCRT in vivo 1 Day Protectant: % control of fungal infection vs untreated plants
[9] = tested on: Erysiphe graminis—ERYSGT; test: Powdery Mildew of Wheat, in vivo whole plant, 24 Hour Protectant; conditions: Erysiphe, read-out: ERYSGT in vivo 1 Day Protectant
[10] = tested on: Septoria tritici—SEPTTR; test: Leaf Blotch of Wheat, in vivo whole plant, 24 Hour Protectant; conditions: for pest or weed control at 100 ppm: Zymoseptoria tritici, 24 h, control of fungal infection vs untreated plants, read-out: SEPTTR in vivo 1 Day Protectant; for SEPTTR in vivo 1 Day Protectant: % control of fungal infection vs untreated plants
[11] = tested on: Leptosphaeria nodorum—LEPTNO; test: Glume Blotch of Wheat, in vivo whole plant, 24 Hour Protectant; conditions: for pest or weed control at 100 ppm: Leptosphaeria, read-out: LEPTNO in vivo 1 Day Protectant
[12] = wheat plants sprayed at 100 ppm, inoculated after 24 hours
[13] = wheat plants sprayed at 100 ppm, inoculated after 24 hours, control of fungal infection vs untreated plants
[14] = 100 ppm spray, wheat, 24 hour protectant
[15] = 100 ppm spray, wheat, 24 hour protectant, control of fungal infection vs untreated plants
[16] = 100 ppm spray, 24 hour protectant, wheat
[17] = 100 ppm spray, 24 hour protectant, wheat, control of fungal infection vs untreated plants
[18] = 100 ppm spray, wheat, 24 hour protectant, % control of fungal infection vs untreated plants

CC1(C)CC(NC(=O)c2ccncc2O)CC(C)(C)C1 [Compound 505]
inhibition at 25 ppm [1]: < 80% | inhibition at 25 ppm [2]: < 80% | inhibition at 25 ppm ([3]; 25 ppm in the growth medium): < 80% | inhibition at 25 ppm ([4]; 25 ppm in the growth medium): < 80% | inhibition at 25 ppm [5]: < 80% | inhibition at 25 ppm [6]: < 80% | pest or weed control at 100 ppm [7]: < 25% | pest or weed control at 100 ppm [8, 12]: < 25% | pest or weed control at 100 ppm [9, 13]: < 25% | pest or weed control at 100 ppm [10, 12]: < 25% | pest or weed control at 100 ppm [11, 13]: < 25%

CCCCCCCCCCCCCCCCCC(=O)O[C@H]1[C@H](C)OC(=O)[C@@H](NC(=O)c2nccc(OC)c2O)COC(=O)[C@@H]1Cc1ccccc1 [Compound 398]
inhibition at 25 ppm [1]: > 80% | inhibition at 25 ppm [2]: < 80% | inhibition at 25 ppm ([3]; 25 ppm in growth medium): > 80% | inhibition at 25 ppm ([4]; 25 ppm in growth medium): > 80% | inhibition at 25 ppm [5]: < 80% | inhibition at 25 ppm [6]: < 80% | pest or weed control at 100 ppm [7]: < 25% | pest or weed control at 100 ppm [8, 14]: 25 to 74% | pest or weed control at 100 ppm [9, 15]: < 25% | pest or weed control at 100 ppm [10, 14]: < 25% | pest or weed control at 100 ppm [11, 15]: < 25%

COc1ccnc(C(=O)NC2CCC(Sc3ccccc3)CC2)c1O (centres unmarked) [Compound 275]
inhibition at 25 ppm [1]: < 80% | inhibition at 25 ppm [2]: > 80% | inhibition at 25 ppm ([3]; 25 ppm in growth medium): > 80% | inhibition at 25 ppm ([4]; 25 ppm in growth medium): > 80% | inhibition at 25 ppm [5]: < 80% | inhibition at 25 ppm [6]: < 80% | pest or weed control at 100 ppm [7]: < 25% | pest or weed control at 100 ppm [8, 16]: < 25% | pest or weed control at 100 ppm [9, 17]: < 25% | pest or weed control at 100 ppm [10, 16]: 25 to 74% | pest or weed control at 100 ppm [11, 17]: 25 to 74%

COc1ccnc(C(=O)N[C@H]2COC(=O)[C@H](Cc3ccccc3)[C@@H](OC(=O)C(C)C)[C@H](C)OC2=O)c1OC(=O)C=C(C)C [Compound 607]
inhibition at 25 ppm [1]: < 80% | inhibition at 25 ppm [2]: < 80% | inhibition at 25 ppm ([3]; 25 ppm in growth medium): < 80% | inhibition at 25 ppm ([4]; 25 ppm in growth medium): > 80% | inhibition at 25 ppm [5]: < 80% | inhibition at 25 ppm [6]: < 80% | pest or weed control at 100 ppm [7]: < 25% | PUCCRT in vivo 1 Day Protectant [8, 14]: + + | pest or weed control at 100 ppm [9, 18]: < 25% | SEPTTR in vivo 1 Day Protectant [10, 14]: + + | pest or weed control at 100 ppm [11, 18]: 25 to 74%

CC1(C)CC(NC(=O)c2ncccc2O)CC(C)(C)C1=O [Compound 205]
inhibition at 25 ppm [1]: < 80% | inhibition at 25 ppm [2]: < 80% | inhibition at 25 ppm ([3]; 25 ppm in growth medium): < 80% | inhibition at 25 ppm ([4]; 25 ppm in growth medium): < 80% | inhibition at 25 ppm [5]: < 80% | inhibition at 25 ppm [6]: < 80% | pest or weed control at 100 ppm [7]: < 25% | pest or weed control at 100 ppm [8, 16]: < 25% | pest or weed control at 100 ppm [9, 17]: < 25% | pest or weed control at 100 ppm [10, 16]: < 25% | pest or weed control at 100 ppm [11, 17]: < 25%

COc1ccnc(C(=O)NC2CC(C)(C)CC3(C2)CC3(F)F)c1O (centres unmarked) [Compound 255]
inhibition at 25 ppm [1]: < 80% | inhibition at 25 ppm [2]: < 80% | inhibition at 25 ppm ([3]; 25 ppm in growth medium): > 80% | inhibition at 25 ppm ([4]; 25 ppm in growth medium): < 80% | inhibition at 25 ppm [5]: < 80% | inhibition at 25 ppm [6]: < 80% | pest or weed control at 100 ppm [7]: < 25% | pest or weed control at 100 ppm [8, 16]: 25 to 74% | pest or weed control at 100 ppm [9, 17]: < 25% | pest or weed control at 100 ppm [10, 16]: 25 to 74% | LEPTNO in vivo 1 Day Protectant [11, 17]: + +

COc1ccc(C(=O)Oc2c(OC)ccnc2C(=O)N[C@H]2COC(=O)[C@H](Cc3ccccc3)[C@@H](OC(=O)C(C)C)[C@H](C)OC2=O)cc1 [Compound 634]
inhibition at 25 ppm [1]: < 80% | inhibition at 25 ppm [2]: < 80% | inhibition at 25 ppm ([3]; 25 ppm in growth medium): < 80% | inhibition at 25 ppm ([4]; 25 ppm in growth medium): < 80% | inhibition at 25 ppm [5]: < 80% | inhibition at 25 ppm [6]: < 80% | pest or weed control at 100 ppm [7]: < 25% | PUCCRT in vivo 1 Day Protectant [8, 14]: + + | pest or weed control at 100 ppm [9, 18]: < 25% | SEPTTR in vivo 1 Day Protectant [10, 14]: + + | LEPTNO in vivo 1 Day Protectant [11, 18]: + +
